Assay results as given in PubChem BioAssay (NCI).
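Five concentrations, 48 hours, 96-well plates. At the GI50, growth is halved. TGI: total growth inhibition.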

How the values were obtained:
Experiment in all cases: NCI tumour cell line growth inhibition, 48 h
BT-549 breast = tested on: BT-549 breast
HT29 colon = tested on: HT29 colon
M14 melanoma = tested on: M14 melanoma
MCF7 breast = tested on: MCF7 breast
NCI/ADR-RES ovarian = tested on: NCI/ADR-RES ovarian
OVCAR-3 ovarian = tested on: OVCAR-3 ovarian
SF-295 CNS = tested on: SF-295 CNS
SK-MEL-5 melanoma = tested on: SK-MEL-5 melanoma
SW-620 colon = tested on: SW-620 colon
TK-10 renal = tested on: TK-10 renal
UO-31 renal = tested on: UO-31 renal
NCI-H522 lung = tested on: NCI-H522 lung

Molecule `COc1cccc(/C=C2\S/C(=N/Nc3nc(C)c(C)s3)NC2=O)c1O` has a TGI (BT-549 breast) of over 100 µM, a TGI (HT29 colon) of over 100 µM and a TGI (M14 melanoma) of over 100 µM. The TGI (MCF7 breast) was over 100 µM, the TGI (NCI/ADR-RES ovarian) was over 100 µM and the TGI (OVCAR-3 ovarian) was over 100 µM. It also gave a TGI (SF-295 CNS) of over 100 µM, a TGI (SK-MEL-5 melanoma) of over 100 µM and a TGI (SW-620 colon) of over 100 µM. The TGI (TK-10 renal) was over 100 µM and the TGI (UO-31 renal) was over 100 µM.
Work on `CN(C)N1C(=O)S/C(=C\c2ccc([N+](=O)[O-])cc2)C1=O` yielded a TGI (HT29 colon) of over 100 µM, a TGI (M14 melanoma) of over 100 µM and a TGI (MCF7 breast) of over 100 µM. For the same molecule, the TGI (NCI-H522 lung) was over 100 µM, the TGI (NCI/ADR-RES ovarian) was over 100 µM and the TGI (OVCAR-3 ovarian) was over 100 µM. For the same molecule, the TGI (SF-295 CNS) was over 100 µM, the TGI (SK-MEL-5 melanoma) was over 100 µM and the TGI (TK-10 renal) was over 100 µM.
`Cc1ccc2c(=O)cc(-c3ccc(C)s3)[nH]c2n1` showed a TGI (BT-549 breast) of over 100 µM, a TGI (M14 melanoma) of 55.9 µM and a TGI (MCF7 breast) of over 100 µM. The TGI (NCI/ADR-RES ovarian) was 0.676 µM, the TGI (OVCAR-3 ovarian) was over 46.8 µM and the TGI (SF-295 CNS) was 2.79 µM. The TGI (SK-MEL-5 melanoma) was 3.41 µM, the TGI (TK-10 renal) was over 100 µM and the TGI (UO-31 renal) was 1.43 µM.
Work on `CSc1ccc(Nc2cc(=O)[nH]c(=O)[nH]2)cc1` yielded a TGI (BT-549 breast) of over 100 µM, a TGI (HT29 colon) of over 100 µM and a TGI (M14 melanoma) of over 100 µM. For the same molecule, the TGI (MCF7 breast) was over 100 µM, the TGI (NCI-H522 lung) was over 100 µM and the TGI (NCI/ADR-RES ovarian) was over 100 µM. It also gave a TGI (OVCAR-3 ovarian) of over 100 µM, a TGI (SF-295 CNS) of over 100 µM and a TGI (SK-MEL-5 melanoma) of over 100 µM. It also gave a TGI (SW-620 colon) of over 100 µM and a TGI (UO-31 renal) of over 100 µM.
For `C=C(C(=O)OC)[C@@H]1C[C@@H](OC(C)=O)C2=C[C@H](C[C@@]3(C)O[C@@H]3C3=CC(C)=C(O3)[C@H]1OC(C)=O)OC2=O`, the TGI (BT-549 breast) was 31.3 µM, the TGI (HT29 colon) was 76.9 µM and the TGI (M14 melanoma) was 43.2 µM. The TGI (MCF7 breast) was 35.3 µM, the TGI (NCI-H522 lung) was 5.83 µM and the TGI (NCI/ADR-RES ovarian) was over 100 µM. The TGI (SF-295 CNS) was 88.5 µM, the TGI (SK-MEL-5 melanoma) was 29.7 µM and the TGI (SW-620 colon) was 28.4 µM. For the same molecule, the TGI (TK-10 renal) was 31.7 µM and the TGI (UO-31 renal) was 36.3 µM.
`COc1ccc(-c2c3c(n(C4OC(CO)C(O)C(O)C4O)c(=S)c2C#N)CCCC3)cc1` (stereo not given) showed a TGI (HT29 colon) of over 100 µM, a TGI (M14 melanoma) of over 100 µM and a TGI (MCF7 breast) of over 100 µM. The TGI (NCI/ADR-RES ovarian) was over 100 µM, the TGI (OVCAR-3 ovarian) was over 100 µM and the TGI (SF-295 CNS) was over 100 µM. The TGI (SK-MEL-5 melanoma) was over 100 µM, the TGI (SW-620 colon) was over 100 µM and the TGI (TK-10 renal) was over 100 µM.
`C=C1C(=O)O[C@H]2C1C[C@@H](OC(C)=O)/C(C)=C/CC[C@@]1(C)O[C@H]21` (stereo not given in full) gave a TGI (BT-549 breast) of 19 µM, a TGI (HT29 colon) of 41.5 µM and a TGI (M14 melanoma) of 16.1 µM. The TGI (MCF7 breast) was 23.4 µM, the TGI (NCI-H522 lung) was 10.2 µM and the TGI (NCI/ADR-RES ovarian) was 32.3 µM. It also gave a TGI (SF-295 CNS) of 50.9 µM, a TGI (SK-MEL-5 melanoma) of 18.4 µM and a TGI (SW-620 colon) of 20.4 µM. The TGI (TK-10 renal) was 17.4 µM and the TGI (UO-31 renal) was 17 µM.
`C/C(=N\NC(=O)c1ccccc1O)c1cccc(/C(C)=N/NC(=O)c2ccccc2O)n1.O=S(=O)([O-])[O-].[Fe+2]` was tested, and the TGI (HT29 colon) was over 100 µM, the TGI (M14 melanoma) was over 100 µM and the GI50 (NCI-H522 lung) was over 100 µM. For the same molecule, the TGI (NCI-H522 lung) was over 100 µM, the GI50 (OVCAR-3 ovarian) was over 100 µM and the TGI (OVCAR-3 ovarian) was over 100 µM. For the same molecule, the TGI (SF-295 CNS) was over 100 µM, the TGI (SW-620 colon) was over 100 µM and the TGI (TK-10 renal) was over 100 µM. It also gave a GI50 (UO-31 renal) of over 100 µM and a TGI (UO-31 renal) of over 100 µM.
`CC(C)C1NC(=O)CC(c2ccccc2)N(N=O)C1c1ccccc1` (stereo not given) gave a TGI (HT29 colon) of over 100 µM, a TGI (MCF7 breast) of over 100 µM and a TGI (NCI-H522 lung) of over 100 µM. The TGI (NCI/ADR-RES ovarian) was over 100 µM, the TGI (OVCAR-3 ovarian) was over 100 µM and the TGI (SF-295 CNS) was over 100 µM. For the same molecule, the TGI (SK-MEL-5 melanoma) was over 100 µM, the TGI (SW-620 colon) was over 100 µM and the TGI (UO-31 renal) was over 100 µM.
`CC(=O)NC(NCCN)(c1ccccc1)c1ccccc1` gave a TGI (HT29 colon) of over 100 µM, a TGI (M14 melanoma) of over 100 µM and a TGI (MCF7 breast) of over 100 µM. It also gave a TGI (NCI/ADR-RES ovarian) of over 100 µM, a TGI (SF-295 CNS) of over 100 µM and a TGI (SK-MEL-5 melanoma) of over 100 µM. The TGI (SW-620 colon) was over 100 µM, the TGI (TK-10 renal) was over 100 µM and the TGI (UO-31 renal) was over 100 µM.
